Data: article PMC11591188, “First Report on Cationic Triphenylphosphonium Compounds as Mitochondriotropic H3R Ligands with Antioxidant Properties” (Antioxidants, 2024)
“And” between values parts separate entries of the source, which are not always exact repeats. Equal values may be shown once. Read-outs that look alike come from different tables or passages of the source.

Legend:
[1] = Oxygen radical absorbance capacity (ORAC-FL) assay; details: mean Trolox equivalents with SEM, at least three independent experiments, 37 °C
Experimental: Antioxidant properties were analyzed using an oxygen radical absorbance capacity (ORAC) assay at 37 °C [27]. Solutions of the fluorescent probe fluorescein at 100 nM and test ligands at concentrations between 20 µM and 6.25 µM were incubated for 15 min in potassium phosphate buffer (75 mM, pH 7.4) protected from light in black 96-well plates at 37 °C. Then, 2,2′-azobis (2-amidinopropane) dihydrochloride (AAPH) was added as a peroxyl radical generator. The fluorescence intensity ([…]) was measured every minute for 90 min. 6-Hydroxy-2,5,7,8-tetramethylchroman-2-carboxylic acid (Trolox) was used as a standard at concentrations between 20 µM and 6.25 µM. Data were obtained in duplicate from at least three independent experiments and evaluated using GraphPad Prism 7.02. Fluorescence intensity was normalized to that of the blank (without AAPH). The area under the fluorescence decay curve for each antioxidant (AUCantioxidant) and for the negative control without antioxidants (AUCnegative control) were calculated for each concentration by summing the fluorescence intensities at each time point. AUCnegative control was subtracted from the AUCantioxidant to calculate the net AUC. Linear regression of the net AUC against the corresponding antioxidant concentration was performed. The ratios of the antioxidant and Trolox slopes from the same experiment were calculated. Thus, ORAC values were expressed as Trolox equivalents [TE], and caffeic acid was used as a reference.

[2] = Cytotoxic effects on SH-SY5Y cells after 24 h (alamar blue viability assay); assay type: cell-based; details: human, SH-SY5Y neuroblastoma cells, 24 h, 95% confidence interval, at least three independent experiments, read-out: LC50
Experimental: (§1) The cytotoxic effects of the tested ligands on neuroblastoma SH-SY5Y cells were determined using the alamar blue viability assay. SH-SY5Y cells were grown in Minimum Essential Medium Eagle (MEME) supplemented with non-essential amino acids, 10% FBS, 100 µg/mL penicillin, 100 units/mL streptomycin, and 2 mM L-glutamine at 37 °C in a humidified atmosphere of 5% CO2. SH-SY5Y cells were seeded in 96-well plates at a density of 8.0 × 10^3 cells per well and grown at 37 °C in a humidified atmosphere of 5% CO2. 24 h after seeding, the test ligands were added at concentrations between 30 µM and 1 nM in a final assay volume of 100 µL per well and incubated for 24 h. Cells treated with 1-methyl-4-phenylpyridinium iodide (MPP+) served as a positive control for cytotoxic effects. The concentration of DMSO was limited to 1% for all the assay points. The medium supplemented with the test compounds was discarded, and 100 µL of resazurin solution in RPMI-1640 medium (44 µM) was added. After two hours of incubation at 37 °C in a humidified atmosphere of 5% CO2, fluorescence intensity ([…]) was determined. Data were obtained in duplicate from at least three independent experiments. LC50 values were evaluated using GraphPad Prism 7.02. using a nonlinear regression. Mean values and 95% confidence intervals were calculated using −log(Ki) and converted to nanomolar concentrations.

hH3R [3] = molecular target: T1, hH3R (Homo sapiens, UniProt Q9Y5N1); test: hH3R radioligand displacement assay ([3H]Nα-methylhistamine, HEK-293-hH3R membranes); assay type: binding
T1 construct: expressed in transfected cells; host or cells: HEK-293 cells stably expressing hH3R
Experimental: Radioligand displacement assays were performed on the membrane fractions of HEK-293 cells stably expressing hH3R455, which occurs mainly in the brain, as described previously with slight modifications. HEK-293-hH3R cells were grown in Dulbecco’s Modified Eagle Medium (DMEM) supplemented with 10% FBS, 100 µg/mL penicillin, 100 units/mL streptomycin, and 10 mM HEPES solution at 37 °C in a humidified atmosphere of 5% CO2. To prepare membrane fractions, cells were washed in a phosphate-buffered saline (PBS) solution and harvested. The cells were centrifuged at 3000× g for 10 min at 4 °C and homogenized with Ultraturrax® in ice-cold binding buffer (75 mM Tris-HCl, 10 mM MgCl2, 100 mM NaCl, pH 7.4). The homogenate was centrifuged twice (20,000× g, 20 min, 4 °C) and reconstituted in an ice-cold binding buffer. Test ligands, radiolabeled ligands, and membrane fractions (20 µg/well) were added to 96-well plates to a final assay volume of 200 µL. After 90 min of incubation with shaking at 25 °C, a cell harvester was used to separate bound from free ligands by filtration through GF/B filters pretreated with 0.3% (m/v) polyethylenimine. Radioactivity was determined by liquid scintillation counting. […] The test ligands were evaluated at concentrations between 100 µM and 0.03 nM. […] Specific binding was calculated by subtracting non-specific binding from the raw data. Data were obtained in duplicate from at least three independent experiments and analyzed using GraphPad Prism 7.02. using a nonlinear regression. The Cheng–Prusoff equation was used to calculate Ki values from the IC50 values. Mean values and 95% confidence intervals were calculated using −log(Ki) and converted to nanomolar concentrations.
S4. hH3R Radioligand Displacement Assay
Radioligand displacement assays were performed on the membrane fractions of HEK-293 cells stably expressing hH3R. Cultivation of hH3R-HEK-293 cells and membrane preparation was performed as described previously. [3H]Nα-Methylhistamine was used as the radiolabeled probe at a final […]
-log(Ki) was used to calculate mean values and 95% confidence intervals.
Figure S13. hH3R competition binding curve of compounds 6a
Figure S14. hH3R competition binding curve of compounds 6b […]

hH3R [4] = molecular target: T1, hH3R; details: cited from earlier work
SH-SY5Y cells = test: Cytotoxic effects on SH-SY5Y cells after 24 h (alamar blue viability assay); assay type: cell-based; details: for effects on cell viability: concentrations below 1 µM
Experimental: as §1

[5] = Table 2, from Ki, read-out: pKi (converted)
[6] = [3H]Nα-methylhistamine displacement on HEK-293-hH3R membranes, 95% confidence interval, at least three independent experiments, read-out: hH3R Ki

T1 sequence (Q9Y5N1 whole entry): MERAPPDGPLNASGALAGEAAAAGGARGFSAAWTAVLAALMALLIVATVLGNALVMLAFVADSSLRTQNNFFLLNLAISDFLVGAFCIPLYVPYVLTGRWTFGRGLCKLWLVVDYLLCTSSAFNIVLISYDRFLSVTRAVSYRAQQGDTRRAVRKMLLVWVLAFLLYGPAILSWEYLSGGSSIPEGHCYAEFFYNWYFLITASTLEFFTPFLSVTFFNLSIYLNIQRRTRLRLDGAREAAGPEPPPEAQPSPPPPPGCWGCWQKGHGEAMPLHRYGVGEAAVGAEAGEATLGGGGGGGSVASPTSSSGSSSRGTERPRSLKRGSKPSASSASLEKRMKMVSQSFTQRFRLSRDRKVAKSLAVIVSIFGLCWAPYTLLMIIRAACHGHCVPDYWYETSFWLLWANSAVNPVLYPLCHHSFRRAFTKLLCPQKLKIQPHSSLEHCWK

| SMILES | ORAC [1] | CC50 at 24 h [2] | Ki (hH3R [3]; [5]) | Ki (hH3R [3]; [6]) | other results |
| --- | --- | --- | --- | --- | --- |
| O=C(O)/C=C/c1ccc(O)c(O)c1 [Caffeic acid, reference compound] | 3.08 ± 0.13 TE |  |  |  |  |
| c1ccc([P+](CCCCCCOc2ccc(OCCCN3CCCCC3)cc2)(c2ccccc2)c2ccccc2)cc1 [Compound 6c, Triphenyltriphenyl-(6-(4-(3-(piperidin-1-yl)propoxy)phenoxy)hexyl)phosphonium bromide] | 0.54 TE and 0.54 ± 0.03 TE | 11.2 µM | 31.5 nM | 31.5 nM |  |
| CCNC(=O)[C@H]1C[C@@](F)(c2ccc(CN3CCCC3)c(F)c2)C1 [PF-03654746] |  |  |  |  | Ki (hH3R [4]; Table 2, co-crystallized ligand of 7F61, read-out: Ki): 3.2 nM |
| CN1CCc2ccc(OCCCN3CCCCC3)cc2C1=O [Compound I] |  |  |  |  | Ki (hH3R [4]; Figure 1, read-out: hH3R Ki): 23 nM |
| c1ccc([P+](CCCCCCCCCOc2ccc(OCCCN3CCCCC3)cc2)(c2ccccc2)c2ccccc2)cc1 [Compound 6e, Triphenyltriphenyl-(9-(4-(3-(piperidin-1-yl)propoxy)phenoxy)nonyl)phosphonium bromide] | 1.07 ± 0.06 TE | < 1 µM | 14.1 nM | 14.1 nM | CC50 (SH-SY5Y cells; 24 h, 95% confidence interval, at least three independent experiments, read-out: LC50 (the source's name)): 910 nM |
| [Br-].c1ccc([P+](CCCCCOc2ccc(OCCCN3CCCCC3)cc2)(c2ccccc2)c2ccccc2)cc1 [Compound 6b, Triphenyl-(5-(4-(3-(piperidin-1-yl)propoxy)phenoxy)pentyl)phosphonium bromide] | 0.70 ± 0.01 TE | 21.8 µM | 17.6 nM | 17.6 nM | effects on cell viability (SH-SY5Y cells): no significant effects on cell viability |
| c1ccc([P+](CCCCOc2ccc(OCCCN3CCCCC3)cc2)(c2ccccc2)c2ccccc2)cc1 [Compound 6a] | 1.04 ± 0.03 TE | 40 µM | 32 nM | 32 nM | effects on cell viability (SH-SY5Y cells): no significant effects on cell viability |
| CNCCc1cnc[nH]1 [[^3H]N^α-methylhistamine, reference compound] |  |  |  |  | Kd (hH3R [3]; probe used at a final concentration of 2 nM, read-out: Kd of the radiolabeled probe): 3.08 nM |
| c1ccc([P+](CCCCCCCCOc2ccc(OCCCN3CCCCC3)cc2)(c2ccccc2)c2ccccc2)cc1 [Compound 6d, Triphenyltriphenyl-(8-(4-(3-(piperidin-1-yl)propoxy)phenoxy)octyl)phosphonium bromide] | 0.89 ± 0.16 TE | 2.69 µM | 20.4 nM | 20.4 nM |  |
| c1ccc([P+](CCCCCCCCCCOc2ccc(OCCCN3CCCCC3)cc2)(c2ccccc2)c2ccccc2)cc1 [Compound 6f, Triphenyltriphenyl-(10-(4-(3-(piperidin-1-yl)propoxy)phenoxy)decyl)phosphonium bromide] | 0.59 ± 0.06 TE | 2.61 µM |  | 67.4 nM | Ki (hH3R [3]; Table 2, biological activity repeated next to the IFD results, read-out: Ki): 67.4 nM |
